The source of these data is publication PMC6368574, “Probing the Inhibition of Microtubule Affinity Regulating Kinase 4 by N-Substituted Acridones” (Scientific Reports, 2019).

Entries after “also recorded” stand apart in the source; their conditions may differ.

What all share (format): cell-based, human
Assay [1] concerns MCF-7 cells. The experiment in a line: Annexin-V apoptosis assay by flow cytometry. To be noted: IC50 concentration, 24 h, annexin-V staining. As for the experimental part: Evasion of apoptosis is a striking hallmark of cancerous cells, it is an essential process that regulates abnormal growth of cells, but compromised signaling helps the cancerous cells to escape apoptosis. MARK4 overexpression also supports the growth and evasion of cancerous cells. Thus, the probability of apoptosis induction by inhibiting MARK4 was studied. The MCF-7 cells were serum starved and treated with IC50 concentration of each acridone derivative for 24 h and subsequently annexin-V staining was used to assess the apoptotic potential of these compounds.
Figure 6 MARK4 inhibition by selected acridone derivatives induces apoptosis, elicited oxidative stress by inducing ROS production in MCF-7 cells. MCF-7 cells were treated with IC50 concentrations of each compound for 24 h and processed for apoptosis analysis using Annexin V-7AAD apoptosis kit by flow cytometry. (A) Quadrants showing the anti-FITC-Annexin-V stained cells after the treatment of each compound as indicated. (B) Bar graphs represents the percentage of apoptotic MCF-7 cells attained with Annexin-V for duplicate measurements ± SD. **p < 0.001, as compared to control (untreated cells). (For anticancer activities paclitaxel has been taken as positive control). (C) Histogram showing the fluorescence emission intensity of DCF as measured by flow cytometry, MCF-7 cells were treated with IC50 concentrations of each compound for 5–6 h and processed for ROS measurements using DCFDA staining and were quantified by flow cytometry. (D) Representative images of MCF-7 cells stained with DCFDA captured on fluorescence microscope (20 X original magnification) for the assessment of ROS after the treatment of respective compound and intensity of green color represents the levels of ROS.
Annexin-V staining was used to analyse the apoptotic potential of synthesized acridone derivatives as described previously[47],[48]. Briefly, MCF-7 cells were dosed with IC50 concentration of selected acridone derivative for 24 h at 37 °C. The control cells were treated with media only. After 24 h treatment, nearly 2.0–2.5 × 10^6 cells were trypsinized and collected by centrifuging the cell suspension at 1800 rpm for 4 min. Collected cells were washed two times with 5 ml of PBS. Finally, cells were stained with FITC labeled Annexin-V antibodies using FITC-Annexin-V kit according to the manufacturer’s guidelines (BD-Biosciences, USA). Approximately, 10,000 events were analyzed for each sample through flow cytometry on BD LSR II Flow Cytometry Analyzer and FlowJo.
Background: In flow cytometry, cells or beads pass a laser one at a time.

The test system of assay [2] is MCF-7 cells. The assay can be described thus: ROS measurement by DCFDA staining. To be noted: IC50 dose, 5–6 h, flow cytometry. As for the experimental part: The respiratory cycle of mitochondria is the foremost source of reactive oxygen species (ROS), and ROS has the potential to induce cell apoptosis. Thus, it was speculated that the treatment with selected acridone derivatives might lead to the production of ROS. The MCF-7 cells were treated with the IC50 dose of compounds 5, 7b, 7d, 7f and 7h for 5–6 h and ROS levels were quantified by flow cytometry using 2-dichlorofluorescein diacetate (DCFDA) staining.
Besides flow cytometry, levels of ROS were also measured by fluorescence spectroscopy, after treatment with compounds 5, 7b, 7d, 7f and 7h, DCFDA staining and imaging on a fluorescence microscope (Fig. 6D). It is easily observed in the Fig. 6D that the intensifications of green fluorescence in case of treated cells denote the higher levels of ROS.
DCF fluorescence helps to measures innumerable ROS such as H2O2 and hydroxyl radicals. That why DCFDA staining was used to quantify the reactive oxygen species (ROS) level inside the cell as described earlier[17],[41]. Briefly, the MCF-7 cells (70–80% confluent) were incubated with IC50 concentration of each compound and positive control H2O2, respectively in a 24-well culture plates. After 5–6 h incubation of cells with respective compounds, cells were gently washed with 500 μl of prewarmed (at 37 °C) Krebs Ringer buffer (20 mM HEPES, 2 mM MgSO4, 10 mM dextrose, 127 mM NaCl, 1 mM CaCl2 and 5.5 mM KCl), subsequently 10 µM DCFDA (Invitrogen Grand Island, NY) has been added to each well and incubated further for 30 min in dark at 37 °C in a humidified CO2 incubator. After 30 min incubation, the cells were collected by trypsinization and ROS levels were quantified with the help of Flow Cytometry. Nearly 10,000 events for each sample were collected on BD LSR II Flow Cytometry Analyzer, and analyzed with help of FlowJo. For intact cell imaging, cells were washed with PBS, pH 7.4 and imaged for ROS levels estimation using the DCFDA fluorescent dye. Fluorescence images were taken on Nikon-EclipseTS100 microscope.

For assay [3], the system named is phosphorylation of tau protein in SH-SY5Y cells. The assay can be described thus: Tau-phosphorylation assay by flow cytometry. To be noted: IC50 dose, 24 h. From the text:
To see the effect of most potential lead molecules (compound 7b, 7d and 7f) on the substrate protein (tau protein) of MARK4 enzyme inhibition activity studies are extended to a cell-based tau-phosphorylation assay. Cells were allowed to grow in the presence of IC50 dose of compound 7b, 7d and 7f for 24 hrs. Following the treatment, the phosphorylation of tau has been assessed with the help of flow cytometry.
To study the effect of selected lead molecules on the phosphorylation of tau protein (a substrate of MARK4) the SH-SY5Y cells were treated with IC50 dose of compound 7b, 7d and 7 f for 24 h and subjected to FACS based analysis as per our previously published protocols[17],[50].

For `COC(=O)Cn1c2ccccc2c(=O)c2cc(C)ccc21` [Compound 5, Methyl 2-(2-methyl-9-oxoacridin-10(9H)-yl)acetate], the “apoptosis induced in MCF-7 cells” value in the assay on MCF-7 cells [1] was 17.91%. Moreover, the ROS levels result in the assay on MCF-7 cells [2] was “increases the production of ROS”.

In the case of `Cc1ccc2c(c1)c(=O)c1ccccc1n2CC(=O)NCc1ccccc1` [Compound 7b, N-benzyl-2-(2-methyl-9-oxoacridin-10(9H)-yl)acetamide], the “apoptosis induced in MCF-7 cells” value with MCF-7 cells [1] came to 69.23%. In the assay on MCF-7 cells [2], the ROS levels result was “increases the production of ROS; also recorded: induce ROS to a higher extent than compound 5 and 7h”. Also, the “phosphorylation level of tau protein” value in assay [3] is recorded as “decreases the phosphorylation level of tau protein”.

As for `COc1ccc(CNC(=O)Cn2c3ccccc3c(=O)c3cc(C)ccc32)cc1` [Compound 7d, N-(4-methoxybenzyl)-2-(2-methyl-9-oxoacridin-10(9H)-yl)acetamide], the “apoptosis induced in MCF-7 cells” value in the assay with MCF-7 cells [1] came out at 43.10%. Further, the ROS levels entry with MCF-7 cells [2] is “increases the production of ROS; also recorded: induce ROS to a higher extent than compound 5 and 7h”. The “phosphorylation level of tau protein” value in assay [3] is listed as “decreases the phosphorylation level of tau protein”.

In the case of `Cc1ccc(NC(=O)Cn2c3ccccc3c(=O)c3cc(C)ccc32)cc1` [Compound 7f, 2-(2-Methyl-9-oxoacridin-10(9H)-yl)-N-(p-tolyl)acetamide], the “apoptosis induced in MCF-7 cells” value in the assay with MCF-7 cells [1] is on record as 41.35%. Further, the ROS levels entry in the assay with MCF-7 cells [2] is “increases the production of ROS; also recorded: induce ROS to a higher extent than compound 5 and 7h”. The “phosphorylation level of tau protein” value in assay [3] is “decreases the phosphorylation level of tau protein”.

`COc1ccccc1NC(=O)Cn1c2ccccc2c(=O)c2cc(C)ccc21` [Compound 7h, N-(2-methoxyphenyl)-2-(2-methyl-9-oxoacridin-10(9H)-yl)acetamide]: the “apoptosis induced in MCF-7 cells” value with MCF-7 cells [1] amounted to 21.53%. For the same compound, the ROS levels entry in the assay on MCF-7 cells [2] is reported as “increases the production of ROS”.
